Test results reported in ChEMBL document CHEMBL2074529, “Increased sensitivity to gemcitabine of P-glycoprotein and multidrug resistance-associated protein-overexpressing human cancer cell lines” (Br J Cancer, 2003).

What was measured:
Assay type in all cases: functional, cell-based
[1] = target: T1, ATP-dependent translocase ABCB1 (Homo sapiens, UniProt P08183); assay: TP_TRANSPORTER: drug resistance in 2780AD cells
[2] = target: T1, ATP-dependent translocase ABCB1; assay: TP_TRANSPORTER: drug resistance in 2RI60 cells
[3] = target: T1, ATP-dependent translocase ABCB1; assay: TP_TRANSPORTER: drug resistance in MDR1-expressing BROmdr cells
[4] = target: T1, ATP-dependent translocase ABCB1; assay: TP_TRANSPORTER: drug resistance in […]-expressing SWI573/SI(I.I) cells

T1 sequence (P08183 whole entry): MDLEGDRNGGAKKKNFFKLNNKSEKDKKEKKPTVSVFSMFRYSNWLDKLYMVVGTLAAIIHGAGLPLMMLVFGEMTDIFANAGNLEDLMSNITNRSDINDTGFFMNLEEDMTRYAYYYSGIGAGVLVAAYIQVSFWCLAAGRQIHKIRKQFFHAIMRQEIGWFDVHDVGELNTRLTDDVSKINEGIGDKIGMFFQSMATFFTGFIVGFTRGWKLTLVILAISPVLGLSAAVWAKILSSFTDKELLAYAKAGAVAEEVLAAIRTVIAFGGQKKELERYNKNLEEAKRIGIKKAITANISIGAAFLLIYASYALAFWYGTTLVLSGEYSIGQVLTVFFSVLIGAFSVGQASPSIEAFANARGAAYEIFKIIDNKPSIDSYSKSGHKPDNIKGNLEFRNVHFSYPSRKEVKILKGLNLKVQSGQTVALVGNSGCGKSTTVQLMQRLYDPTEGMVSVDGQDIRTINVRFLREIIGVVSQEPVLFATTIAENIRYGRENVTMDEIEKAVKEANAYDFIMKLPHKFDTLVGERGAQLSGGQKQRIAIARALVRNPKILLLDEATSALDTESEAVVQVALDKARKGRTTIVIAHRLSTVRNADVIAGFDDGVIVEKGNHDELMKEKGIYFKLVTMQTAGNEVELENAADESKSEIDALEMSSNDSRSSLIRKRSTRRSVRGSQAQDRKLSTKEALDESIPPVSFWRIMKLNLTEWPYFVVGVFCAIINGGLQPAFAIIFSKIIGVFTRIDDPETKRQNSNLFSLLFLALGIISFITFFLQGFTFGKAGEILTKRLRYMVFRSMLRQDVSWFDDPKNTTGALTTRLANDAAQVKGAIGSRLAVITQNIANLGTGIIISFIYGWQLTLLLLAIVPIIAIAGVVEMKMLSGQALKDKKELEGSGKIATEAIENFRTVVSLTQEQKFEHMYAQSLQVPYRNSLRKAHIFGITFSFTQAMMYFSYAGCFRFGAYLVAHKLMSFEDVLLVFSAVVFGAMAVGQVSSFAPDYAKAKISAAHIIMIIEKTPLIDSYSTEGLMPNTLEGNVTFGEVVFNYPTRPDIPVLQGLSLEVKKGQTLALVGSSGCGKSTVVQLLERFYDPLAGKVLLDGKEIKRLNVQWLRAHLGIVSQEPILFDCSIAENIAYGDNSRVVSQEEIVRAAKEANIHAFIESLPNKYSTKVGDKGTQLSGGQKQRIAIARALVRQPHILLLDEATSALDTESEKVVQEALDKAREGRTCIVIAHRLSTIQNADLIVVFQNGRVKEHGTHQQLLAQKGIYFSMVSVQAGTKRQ

- Activity [1]: substrate [+]
- Activity [2]: substrate [+]
- Activity [3]: substrate [+]
- Activity [4]: substrate [+]
SMILES: Nc1ccn([C@@H]2O[C@H](CO)[C@@H](O)C2(F)F)c(=O)n1 [GEMCITABINE]
